# In US11214803B2, “Modulators of YAP1 expression” (Ionis Pharmaceuticals, Inc., priority 2019, dated 2022):
# Strand notation (5' to 3'): a small letter for the sugar, then the base; units joined by * are phosphorothioate-linked, units joined directly phosphodiester-linked; [ ] holds rarer units or linkages, { } end groups; capitals alone tell only the bases. e = 2'-O-(2-methoxyethyl) (MOE); k = constrained ethyl (cEt); [5mC] = 5-methylcytosine; d = 2'-deoxy (DNA); m = 2'-O-methyl
# Test system: Yap1 mRNA
# Test: Dose-dependent inhibition of human Yap1 in SNU-449 cells (Example 9, RTS36584)
# Format: cell-based
# Settings: free uptake; for % UTC (Yap1 mRNA): approximately 48 hours; for IC50: linear regression on a log/linear plot
# Summary of the method: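 Read-out was Yap1 mRNA (primer-probe RTS36584) normalised to total RNA by RIBOGREEN, given as % of untreated cells, with IC50 fitted by linear regression of log/linear data. Oligonucleotides were dosed by free uptake to SNU-449 cells, 10,000/well, for ~48 h.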
Substance,% UTC (Yap1 mRNA) (31.3 nM) [% UTC],% UTC (Yap1 mRNA) (125.0 nM) [% UTC],% UTC (Yap1 mRNA) (500.0 nM) [% UTC],% UTC (Yap1 mRNA) (2000.00 nM) [% UTC],IC50 [nM]
1198958 (kT*kG*dT*dA*dT*dG*dT*d[5mC]*dA*dG*dA*kA*dG*kA*dG*kT; antisense) [compound 1198958],68,39,16,5,100
1197217 (kT*kT*kA*dA*dA*dG*dT*dG*dT*dA*dT*dG*dT*k[5mC]*kA*kG) [compound 1197217],66,39,14,4,100
1198268 (kA*kA*dG*dT*dG*dT*dA*dT*dG*dT*d[5mC]*eA*eG*eA*kA*kG; antisense) [compound 1198268],83,52,17,5,100
1197193 (AGGATGCATGGTTTTT; chemistry not fully specified) [compound 1197193],85,52,24,11,200
1198380 (kA*dG*dA*dG*dT*dA*dT*dG*dT*dG*dG*k[5mC]*eA*kA*eT*kA; antisense) [compound 1198380],72,55,27,11,100
1198484 (kG*k[5mC]*dA*d[5mC]*dT*dT*dT*dT*dA*d[5mC]*dA*eT*kT*eA*kG*eG) [compound 1198484],80,45,24,12,100
1097247 (kT*kA*kA*dA*dG*dT*dG*dT*dA*dT*dG*dT*d[5mC]*kA*kG*kA; antisense) [compound 1097247],58,28,8,2,40
1198424 (k[5mC]*dT*d[5mC]*dT*dT*dA*dT*dA*dT*dG*dG*kT*eT*kT*eT*kG; antisense) [compound 1198424],64,44,24,9,100
1198358 (kT*kT*kT*dA*dA*dA*dG*dT*dG*dT*dA*dT*kG*eT*k[5mC]*eA; antisense) [compound 1198358],68,39,20,8,100
1198814 (kA*kG*dA*dG*dT*dA*dT*dG*dT*dG*dG*k[5mC]*eA*kA*eT*kA) [compound 1198814],63,25,6,3,40
1197229 (kG*kG*kA*dA*mA*dT*dT*dG*dT*d[5mC]*dT*d[5mC]*dA*kT*kG*k[5mC]; antisense) [compound 1197229],54,32,16,7,30
1198697 (kA*kG*dT*dG*dT*dA*dT*dG*dT*d[5mC]*dA*dG*kA*eA*kG*eA) [compound 1198697],60,29,7,1,40
1198422 (k[5mC]*dT*dT*dA*dT*dA*dT*dG*dG*dT*dT*kT*eT*kG*eT*kG) [compound 1198422],88,60,30,19,200
1198267 (kA*kG*dT*dG*dT*dA*dT*dG*dT*d[5mC]*dA*eG*eA*eA*kG*kA; antisense) [compound 1198267],78,44,15,3,100
1198552 (kA*kG*kA*dG*dT*dA*dT*dG*dT*dG*dG*d[5mC]*kA*kA*kT*eA; antisense) [compound 1198552],72,46,23,9,100
1198911 (kG*kA*dG*dG*dT*dA*dT*dA*dA*d[5mC]*dT*kG*dG*kG*d[5mC]*kA; antisense) [compound 1198911],62,31,12,7,50

Substance,% UTC (Yap1 mRNA) (31.3 nM) [% UTC],% UTC (Yap1 mRNA) (125.0 nM) [% UTC],% UTC (Yap1 mRNA) (500.0 nM) [% UTC],% UTC (Yap1 mRNA) (2000.00 nM) [% UTC],IC50 [nM]
1198905 (kA*kT*dA*dT*dT*dA*dG*dA*dG*dT*dA*kT*dG*kT*dG*kG; antisense) [compound 1198905],75,43,21,6,100
1198935 (kG*kA*dT*dT*dT*dA*dG*dG*dA*dT*dG*k[5mC]*dA*kT*dG*kG; antisense) [compound 1198935],50,46,23,11,40
1198787 (kA*eG*kT*dG*dT*dA*dT*dG*dT*d[5mC]*dA*dG*eA*eA*kG*kA; antisense) [compound 1198787],68,21,6,1,50
1200794 (kA*kG*kA*dG*dT*mA*dT*dG*dT*dG*dG*d[5mC]*dA*kA*kT*kA; antisense) [compound 1200794],85,59,31,13,200
1200785 (kA*kT*kT*dG*dT*mC*dT*d[5mC]*dA*dT*dG*d[5mC]*d[5mC]*kT*kT*kA; antisense) [compound 1200785],98,73,42,24,400
1200798 (kT*kA*kT*dT*dA*mG*dA*dG*dT*dA*dT*dG*dT*kG*kG*k[5mC]; antisense) [compound 1200798],77,44,17,7,100
1198294 (kA*kG*kA*dG*dT*dA*dT*dG*dT*dG*dG*d[5mC]*kA*eA*kT*eA; antisense) [compound 1198294],59,33,14,5,50
1198371 (kA*dT*dT*dG*dT*d[5mC]*dT*d[5mC]*dA*dT*dG*k[5mC]*e[5mC]*kT*eT*kA; antisense) [compound 1198371],85,66,46,21,300
1197176 (kT*kG*kT*d[5mC]*dT*d[5mC]*dA*dT*dG*d[5mC]*d[5mC]*dT*dT*kA*kT*kA; antisense) [compound 1197176],66,37,19,6,100
1198642 (kT*kA*dT*dT*dA*dG*dA*dG*dT*dA*dT*dG*kT*eG*kG*e[5mC]; antisense) [compound 1198642],79,48,15,4,100
1198614 (kT*kA*kA*dA*dG*dT*dG*dT*dA*dT*dG*dT*k[5mC]*kA*kG*eA; antisense) [compound 1198614],69,26,3,1,100
1198354 (kA*kA*kG*dT*dG*dT*dA*dT*dG*dT*d[5mC]*dA*kG*eA*kA*eG) [compound 1198354],66,24,5,1,50
1197215 (kA*kA*kG*dT*dG*dT*dA*dT*dG*dT*d[5mC]*dA*dG*kA*kA*kG) [compound 1197215],56,31,7,2,40
1198917 (k[5mC]*kA*d[5mC]*dT*dT*dT*dT*dA*d[5mC]*dA*dT*kT*dA*kG*dG*kA; antisense) [compound 1198917],81,37,12,6,100
"1198423 (TCTTATATGGTTTTGT; all C 5-methyl, all phosphorothioate, sugars by position not given here; cEt/MOE mixed gapmer, notation at position 4 garbled) [compound 1198423]",58,35,15,6,50
1200797 (kA*kT*kT*dA*dG*mA*dG*dT*dA*dT*dG*dT*dG*kG*k[5mC]*kA; antisense) [compound 1200797],84,52,23,11,200
